Values after ≈ are worked out from the molar mass of the structure shown. Like-named read-outs stand apart in the source and are kept apart here.
What was measured:
[1] = test system: S. cerevisiae YFK532-7C (fks1-1); test: primary screen, zone size on agar; format: cell-based, Saccharomyces cerevisiae; details: 20 ng FK506, 10 mcg CsA, 10 mcg L733,560, 20 mcg aculeacin, 20 mcg papulacandin, 48 h
Experimental: (§1) Each strain is grown at 28°-30° C. in YPAD/10 mM CaCl2 medium with shaking at 220 rpm (to mid or late log phase). The cultures are diluted 1:10 with water, and the OD values of the dilutions are measured at 600 nm (against a blank of YPAD/10 mM CaCl2 similarly diluted 1:10 in water). The OD value is multiplied by 10 to estimate the OD of the culture. Portions (100 ml) of YPAD/10 mM CaCl2 medium containing 1.5% agar, equilibrated at 45° C. in a water bath, are seeded with culture such that the final cell density in the agar would have an OD value of 0.015 (i.e., 3×10^6 cfu/ml; a sample calculation is provided below). The seeded agar is poured into 500 cm^2 Nunc plates. Once the agar plates have solidified, 10 mcL aliquots of samples containing test compounds, such as fermentation extracts, are dissolved in water, 100% methanol or ethanol, or up to 50% DMSO and are placed on each member of the two-plate set in 11 by 8 arrays.
(§2) The plates are incubated for 48 h at 28°-30° C. Diameters of the zones are read to the outermost edge and recorded in mm. The clarity of the zone is reported as clear (no designation), hazy (h), or very hazy (vh). Very hazy zones are best seen by viewing the plate under an elevated light placed between the assay dish and a dark wall.

[2] = test system: S. cerevisiae YFK007 (wild type); test: primary screen, zone size on agar; format: cell-based, Saccharomyces cerevisiae; details: 20 ng FK506, 10 mcg CsA, 10 mcg L733,560, 20 mcg aculeacin, 20 mcg papulacandin, 48 h
Experimental: as §1, §2

[3] = test system: S. cerevisiae YFK798 (fks1-1 + CN); test: primary screen, zone size on agar (calcineurin counter screen); format: cell-based, Saccharomyces cerevisiae; details: 20 ng FK506, 10 mcg CsA, 10 mcg L733,560, 20 mcg aculeacin, 20 mcg papulacandin, 48 h
Experimental: Counter screening strains were devised for identifying calcineurin inhibitors. Overexpression of yeast calcineurin in the fks1-1 mutant (strain YFK798) constitutes the most general of these. […] Glucan synthase inhibitors show neither effect and thus can be distinguished from calcineurin inhibitors.
as §1, §2

[4] = test system: S. cerevisiae FKS1 pcr1 spores; test: drug phenotype of segregants from tetrad analysis; format: cell-based, Saccharomyces cerevisiae
Source text: YFK0996-11B (MATa fks1-1 pcr1) was also crossed to YFK0005 (MATalpha FKS1 PCR1). In this cross, the pcr1 and fks1-1 mutations segregate independently. In the 16 four-spore and 20 three-spore tetrads, the segregation pattern of 1 Parental Ditype: 1 Non Parental Ditype : 4 Tetratype tetrads is indicative of two unlinked genes. […] Strains MY2257 (also known as YFK1088-23B, MATa FKS1 +pcr1), MY2258 (also known as YFK1088-16D, MATalpha FKS1+pcr1), and YFK1088-02D (MATa FKS1 +pcr1) were segregants from this cross. As shown in the table below, these segregants contain the pcr1 mutation in a wild-type FKS1 background and lack plasmid pDL1 present in the original mutant.

[5] = test system: S. cerevisiae YFK532-7C (fks1-1) versus YFK007; test: sensitivity of fks1-1 mutant relative to FKS1 wild-type strain; format: cell-based, Saccharomyces cerevisiae; details: calcineurin inhibitors
[6] = test system: S. cerevisiae haploid strain with the insertion-deletion allele (fks1-5::HIS3 / fks1-6::HIS3); test: phenotype of haploid strain with FKS1 insertion-deletion allele; format: cell-based, Saccharomyces cerevisiae
Source text: An insertion-deletion allele of the fks1-1 complementing DNA was created in the following manner. The 8.8-kb SphI-PstI fragment of pFF133 was inserted between the SphI and PstI sites of the polylinker of the E. coli vector pGEM-5Zf(+) (Promega, Madison, Wis.) giving plasmid pFF174. The 1.3-kb BamHI-XhoI HIS3 fragment from plasmid pJJ215 (J. S. Jones and L. Prakash, Yeast, 6:363-366 (1990)) was inserted by blunt-end ligation (see Current Protocols, p. 3.5.10) between the two KpnI sites of plasmid pFF174 giving plasmids pFF186 (sense orientation) and pFF187 (antisense orientation). The 6.6-kb insertion-deletion fragments were excised by digestion with SstI+SphI and purified by agarose gel electrophoresis. The insertion-deletion mutation was created by one-step gene replacement (see R. Rothstein, GYG, pp. 281-301). This disruption was confirmed by Southern blot hybridization analysis of genomic DNA digested with PstI and probed with the 8.8-kb SphI-PstI fragment from plasmid pFF174. The undisrupted parent gives a single 9.8-kb genomic fragment which hybridizes with the probe. A disruption mutant in which HIS3 is inserted in the sense orientation, for example YFF2409, gives 3.9- and 3.7-kb fragments, while an antisense disruption mutant, for example YFF2411, gives 4.9- and 2.7-kb fragments. […]

[7] = test system: S. cerevisiae YFK0931-07B; test: MIC assay; format: cell-based; details: Saccharomyces cerevisiae, YFK093107B, 42 h
Experimental: (§3) The sensitivities of pcr1(fks2-1) fks1-1 and pcr1(fks2-1) FKS1 strains to L-733,560, L-636,947 (Aculeacin), and L-687,781 (Dihydropapulocandin) were determined in MIC assays. Briefly, strains were grown to stationary phase in 5.0 ml of liquid YPAD medium. MY2256 precultures were grown in liquid YPAD10Ca. MIC assays were performed in flat well microtiter plates in triplicate. Each well of the microtiter plate was filled with 100 mcL of YPAD medium. To the first well, 100 mcL of a 4× solution of drug in YPAD medium was added. To serve as a control, a stock solution of […] of YPAD was made. 100 mcL of this solution was added to the initial well for strains grown in the presence of solvent but the absence of drug. Two-fold serial dilutions of the drug were performed down the plate.
(§4) Cultures were diluted to 5×10^5 cells/ml in YPAD (1 OD660 =3.3×10^7 cells/ml). 100 mcL of diluted culture was added to each well, resuspended, and incubated at 28° C. After 42 hours, cultures were resuspended and cells densities measured in an SLT Laboratories 340 ATTC microtiter plate reader.

S. cerevisiae MY2256 = test: MIC assay; format: cell-based; details: Saccharomyces cerevisiae, MY2256, 42 h
Experimental: as §3, §4

S. cerevisiae R560-1C = test: secondary screen, zone size on agar; format: cell-based, Saccharomyces cerevisiae; details: 20 ng FK506, 10 mcg CsA, 10 mcg L733,560, 20 mcg aculeacin, 20 mcg papulacandin
Experimental: (§5) For positively identifying glucan synthase inhibitors, screening with strain R560-1C and its parent W303-1A was instituted in a manner identical to that described for calcineurin inhibitors. Complete loss of a zone, or marked reduction in size, on R560-1C versus W303-1A indicates a glucan synthase inhibitor. No zones are seen with calcineurin inhibitors using this pair of strains.
as §1, §2

S. cerevisiae W303-1A = test: secondary screen, zone size on agar; format: cell-based, Saccharomyces cerevisiae; details: 20 ng FK506, 10 mcg CsA, 10 mcg L733,560, 20 mcg aculeacin, 20 mcg papulacandin
Experimental: as §5, §1, §2

| Compound | Primary Screen Zone size (mm) [1] | Primary Screen Zone size (mm) [2] | Primary Screen Zone size (mm) [3] [mm] | drug resistance phenotype of spores [4] | sensitivity of YFK532-7C relative to YFK007 [5] | drug sensitivity phenotype [6] | MIC ([7]; YFK0931-07B, read-out: MIC) [µg/mL] | MIC (S. cerevisiae MY2256) [µg/mL] | Secondary Screen Zone size (mm) (S. cerevisiae R560-1C) | Secondary Screen Zone size (mm) (S. cerevisiae W303-1A) | MIC [7] [µg/mL] |
| --- | --- | --- | --- | --- | --- | --- | --- | --- | --- | --- | --- |
| C=CC[C@@H]1/C=C(\C)C[C@H](C)C[C@H](OC)[C@H]2O[C@@](O)(C(=O)C(=O)N3CCCC[C@H]3C(=O)O[C@H](/C(C)=C/[C@@H]3CC[C@@H](O)[C@H](OC)C3)[C@H](C)[C@@H](O)CC1=O)[C@H](C)C[C@@H]2OC [FK506] | 15-17 mm | none | 13 | resistant | at least a thousand fold more sensitive | hypersensitive | 0.03 (≈ 0.0373 µM) | 0.06 (≈ 0.0746 µM) | none | none |  |
| CCC1C=C(C)CC(C)CC(OC)C2OC(O)(C(=O)C(=O)N3CCCCC3C(=O)OC(C(C)=CC3CCC(O)C(OC)C3)C(C)C(O)CC1=O)C(C)CC2OC (stereo not shown) [FK520] |  |  |  | resistant |  |  |  | 0.06 (≈ 0.0758 µM) |  |  | 0.06 (≈ 0.0758 µM) |
